In publication PMC7496286, “The Selectivity of Fosfosal for STAT5b over STAT5a is Mediated by Arg566 in the Linker Domain” (Chembiochem, 2020):
Positions count from the first letter of the chain named.

Legend:
STAT5b Arg566Glu = molecular target: T1, STAT5b Arg566Glu (Homo sapiens, UniProt P51692, R566E); assay: FP-based competitive binding assay, STAT5b Arg566Glu
T1 construct: His; made in house
T1 sequence (P51692 1-787 R566E): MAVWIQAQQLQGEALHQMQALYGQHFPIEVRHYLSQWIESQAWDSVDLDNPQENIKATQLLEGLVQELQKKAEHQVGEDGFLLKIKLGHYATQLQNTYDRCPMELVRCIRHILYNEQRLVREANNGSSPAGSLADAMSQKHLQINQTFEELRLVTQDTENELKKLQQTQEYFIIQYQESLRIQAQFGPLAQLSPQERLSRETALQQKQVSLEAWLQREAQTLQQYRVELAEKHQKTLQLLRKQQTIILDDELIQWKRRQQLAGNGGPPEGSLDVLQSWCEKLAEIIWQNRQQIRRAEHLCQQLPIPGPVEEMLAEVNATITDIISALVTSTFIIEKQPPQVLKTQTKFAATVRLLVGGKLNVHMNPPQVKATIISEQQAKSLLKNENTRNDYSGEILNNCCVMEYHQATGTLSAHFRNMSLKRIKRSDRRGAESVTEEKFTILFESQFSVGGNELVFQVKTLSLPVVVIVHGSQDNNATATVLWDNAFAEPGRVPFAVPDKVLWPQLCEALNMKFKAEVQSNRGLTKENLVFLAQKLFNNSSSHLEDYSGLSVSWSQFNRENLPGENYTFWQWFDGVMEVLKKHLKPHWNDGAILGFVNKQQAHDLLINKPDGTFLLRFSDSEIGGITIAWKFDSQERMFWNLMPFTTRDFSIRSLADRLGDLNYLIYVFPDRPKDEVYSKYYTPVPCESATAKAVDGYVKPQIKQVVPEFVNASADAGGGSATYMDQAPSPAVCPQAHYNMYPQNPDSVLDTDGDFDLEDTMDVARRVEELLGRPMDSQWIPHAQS
Procedure: (§1) Fluorescence polarization assays
(§2) The ability of test compounds to displace 5-carboxyfluorescein-GY(PO3H2)LVLDKW (final concentration: 10 nM) from the SH2 domain of STAT5a/b proteins was analyzed. Proteins […]
(§3) was applied in dilution series comprising the following concentrations: 0.024 – 200 µM […]
(§4) and 0.146 – 600 µM (STAT5b Arg566Glu), respectively. The assays were performed in buffer containing 10 mM Tris, 50 mM NaCl, 1 mM DTT, 1 mM EDTA and 0.1% (v/v) NP-40. Fosfosal was dissolved in DMSO. STAT5a/b proteins and fosfosal were incubated at room temperature for 1 h before adding peptide. Samples were transferred to 384-well microtiter plates and fluorescence polarization was read after a further 1 h incubation time. All measurements were performed in triplicate (n=3), except for STAT5b (n=6) and STAT5a Trp566Arg (n=4). Percent binding was calculated based on a logarithmic curve fit using OriginPro 8G software. IC50 values were converted to Ki values using the published equation.[4] […]

STAT5b Met644Lys = molecular target: T2, STAT5b Met644Lys (Homo sapiens, UniProt P51692, M644K); assay: FP-based competitive binding assay, STAT5b Met644Lys
T2 construct: His; made in house
T2 sequence (P51692 1-787 M644K): T1 sequence (P51692 1-787 R566E) with E566R, M644K
Procedure: as §1, §2, §3, §4
[4] Z. Nikolovska-Coleska, R. Wang, X. Fang, H. Pan, Y. Tomita, P. Li, P. P. Roller, K.
Krajewski, N. G. Saito, J. A. Stuckey, S. Wang, Anal. Biochem. 2004, 332, 261-273.

Row | % inhibition at 600 μM (STAT5b Arg566Glu; STAT5b Arg566Glu, up to 600 μM) | IC50 (STAT5b Met644Lys; STAT5b Met644Lys) | Ki (STAT5b Met644Lys; STAT5b Met644Lys, Ki calculated from IC50) | SMILES | Kd (STAT5b Arg566Glu) | Kd (STAT5b Met644Lys)
1 |  |  |  | CC(C)C[C@H](NC(=O)[C@H](Cc1ccc(OP(=O)(O)O)cc1)NC(=O)CNC(=O)c1ccc2c(c1)C(=O)OC21c2ccc(O)cc2Oc2cc(O)ccc21)C(=O)N[C@H](C(=O)N[C@@H](CC(C)C)C(=O)N[C@@H](CC(=O)O)C(=O)N[C@@H](CCCCN)C(=O)N[C@@H](Cc1c[nH]c2ccccc12)C(=O)O)C(C)C [5-carboxyfluorescein-GY(PO3H2)LVLDKW] | 2 µM | 0.026 µM
2 | no inhibition | 36.6 ± 2 µM | 17.2 ± 0.9 µM | O=C(O)c1ccccc1OP(=O)(O)O [fosfosal, O‐phosphorylated salicylic acid] |  | 
